According to ChEMBL document CHEMBL3400128, “Design, synthesis and biological evaluation of functionalized phthalimides: a new class of antimalarials and inhibitors of falcipain-2, a major hemoglobinase of malaria parasite” (Bioorg Med Chem, 2015):
Where “and” joins values, the source holds several entries; their conditions need not be identical. Equal entries are not always repeated. Calls of active or inactive are those of the source. No cut-off for these calls is given here.

Key:
[1] = tested on: Plasmodium falciparum; test: Antimalarial activity against chloroquine-sensitive Plasmodium falciparum 3D7 infected in human erythrocyte assessed as parasite viability after 48 hrs by [3H]hypoxanthine incorporation based liquid scintillation counting analysis; assay type: functional, organism-based
[2] = tested on: Plasmodium falciparum; test: Antimicrobial activity against chloroquine-sensitive Plasmodium falciparum 3D7 infected in human erythrocyte assessed as parasite viability at 6.25 to 25 ng/ml after 42 hrs by [3H]hypoxanthine incorporation based liquid scintillation counting analysis; assay type: functional, organism-based
[3] = tested on: Plasmodium falciparum; test: Antimalarial activity against chloroquine-sensitive Plasmodium falciparum 3D7 infected in human erythrocyte assessed as parasite viability after 60 hrs by [3H]hypoxanthine incorporation based liquid scintillation counting analysis; assay type: functional, organism-based
[4] = tested on: Plasmodium falciparum; test: Antimalarial activity against chloroquine-sensitive Plasmodium falciparum 3D7 infected in human erythrocyte assessed as parasite viability after 90 hrs by [3H]hypoxanthine incorporation based liquid scintillation counting analysis; assay type: functional, organism-based
[5] = tested on: Plasmodium falciparum; test: Antimicrobial activity against blood stage chloroquine-sensitive Plasmodium falciparum 3D7 infected in human erythrocyte assessed as abnormal morphologies at 43.68 uM after 6 hrs by Giemsa staining based light microscopy; assay type: functional, organism-based
[6] = tested on: Plasmodium falciparum; test: Antimicrobial activity against blood stage chloroquine-sensitive Plasmodium falciparum 3D7 infected in human erythrocyte assessed as abnormal morphologies at 21.8 uM after 6 hrs by Giemsa staining based light microscopy; assay type: functional, organism-based
[7] = tested on: Plasmodium falciparum; test: Antimicrobial activity against blood stage chloroquine-sensitive Plasmodium falciparum 3D7 infected in human erythrocyte assessed as inhibition of invasion event of merozoites after 6 hrs by Giemsa staining based light microscopy; assay type: functional, organism-based
[8] = tested on: Plasmodium falciparum; test: Antimicrobial activity against chloroquine-resistant Plasmodium falciparum 7G8 infected in human erythrocyte assessed as parasite viability after 48 hrs by [3H]hypoxanthine incorporation based liquid scintillation counting analysis; assay type: functional
[9] = tested on: Plasmodium falciparum; test: Antimicrobial activity against ring stage trophozoite chloroquine-sensitive Plasmodium falciparum 3D7 infected in human erythrocyte assessed as abnormal morphologies at 43.68 uM after 16 hrs by Giemsa staining based light microscopy; assay type: functional, organism-based
[10] = tested on: Plasmodium falciparum; test: Antimicrobial activity against ring stage trophozoite chloroquine-sensitive Plasmodium falciparum 3D7 infected in human erythrocyte assessed as abnormal morphologies at 21.8 uM after 16 hrs by Giemsa staining based light microscopy; assay type: functional, organism-based
[11] = Toxicity in human erythrocytes assessed as hemolytic activity up to 50 ug/ml after 42 hrs by spectrophotometric analysis; assay type: cell-based; conditions: erythrocyte
[12] = molecular target: T1, Falcipain 2 (Plasmodium falciparum) (UniProt Q9N6S8); test: Inhibition of Plasmodium falciparum Falcipain 2 using Z-Leu-Arg-AMC substrate assessed as fluorogenic substrate hydrolysis
T1 sequence (whole entry): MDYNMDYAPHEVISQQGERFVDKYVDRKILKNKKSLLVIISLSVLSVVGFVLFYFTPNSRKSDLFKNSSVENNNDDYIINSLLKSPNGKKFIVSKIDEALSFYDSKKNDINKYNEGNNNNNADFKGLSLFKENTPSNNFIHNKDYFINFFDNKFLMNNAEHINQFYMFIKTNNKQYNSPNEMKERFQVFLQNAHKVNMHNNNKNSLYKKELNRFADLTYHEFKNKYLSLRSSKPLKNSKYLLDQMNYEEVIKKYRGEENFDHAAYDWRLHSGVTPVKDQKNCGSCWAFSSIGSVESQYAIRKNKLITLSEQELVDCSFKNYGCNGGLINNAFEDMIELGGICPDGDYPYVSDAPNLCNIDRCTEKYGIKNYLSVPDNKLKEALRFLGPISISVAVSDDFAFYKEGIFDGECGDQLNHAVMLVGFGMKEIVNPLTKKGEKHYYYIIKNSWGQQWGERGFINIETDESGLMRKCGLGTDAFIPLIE

[13] = molecular target: T1, Falcipain 2 (Plasmodium falciparum); test: Inhibition of Plasmodium falciparum Falcipain 2 at 5 nM by hemoglobin hydrolysis assay
[14] = molecular target: T1, Falcipain 2 (Plasmodium falciparum); test: Inhibition of Plasmodium falciparum Falcipain 2 at 500 nM by hemoglobin hydrolysis assay
[15] = tested on: Plasmodium falciparum; test: Antimicrobial activity against blood stage chloroquine-sensitive Plasmodium falciparum 3D7 infected in human erythrocyte assessed as abnormal morphologies at 55.28 uM after 6 hrs by Giemsa staining based light microscopy; assay type: functional, organism-based
[16] = tested on: Plasmodium falciparum; test: Antimicrobial activity against blood stage chloroquine-sensitive Plasmodium falciparum 3D7 infected in human erythrocyte assessed as abnormal morphologies at 27.64 uM after 6 hrs by Giemsa staining based light microscopy; assay type: functional, organism-based
[17] = tested on: Plasmodium falciparum; test: Antimicrobial activity against chloroquine-sensitive Plasmodium falciparum 3D7 infected in human erythrocyte assessed as parasite viability after 42 hrs by [3H]hypoxanthine incorporation based liquid scintillation counting analysis in presence of 25 ng/ml; assay type: functional, organism-based
[18] = tested on: Plasmodium falciparum; test: Antimicrobial activity against chloroquine-sensitive Plasmodium falciparum 3D7 infected in human erythrocyte assessed as parasite viability after 42 hrs by [3H]hypoxanthine incorporation based liquid scintillation counting analysis in presence of 12.5 ng/ml; assay type: functional, organism-based
[19] = tested on: Plasmodium falciparum; test: Antimicrobial activity against chloroquine-sensitive Plasmodium falciparum 3D7 infected in human erythrocyte assessed as parasite viability after 42 hrs by [3H]hypoxanthine incorporation based liquid scintillation counting analysis in presence of 6.25 ng/ml; assay type: functional, organism-based
[20] = tested on: Plasmodium falciparum; test: Antimicrobial activity against ring stage trophozoite chloroquine-sensitive Plasmodium falciparum 3D7 infected in human erythrocyte assessed as abnormal morphologies at 55.28 uM after 16 hrs by Giemsa staining based light microscopy; assay type: functional, organism-based
[21] = tested on: Plasmodium falciparum; test: Antimicrobial activity against ring stage trophozoite chloroquine-sensitive Plasmodium falciparum 3D7 infected in human erythrocyte assessed as abnormal morphologies at 27.64 uM after 16 hrs by Giemsa staining based light microscopy; assay type: functional, organism-based

CC(C)[C@@H](C(=O)N1CCCCC1)N1C(=O)c2ccccc2C1=O
IC50 [1]: 41 µg/mL and 130 µM

CC(C)C[C@@H](C(=O)N1CCC(Cc2ccccc2)CC1)N1C(=O)c2ccccc2C1=O
IC50 [1]: 18.5 µg/mL and 44.2 µM

CC[C@@H](C)[C@@H](C(=O)N1CCOCC1)N1C(=O)c2ccccc2C1=O
IC50 [1]: 20 µg/mL and 60.6 µM

CC(C)[C@@H](C(=O)N1CCCC1)N1C(=O)c2ccccc2C1=O
IC50 [1]: 42.5 µg/mL and 142 µM

CC[C@@H](C)[C@@H](C(=O)N1CCCCC1)N1C(=O)c2ccccc2C1=O
IC50 [1]: 35 µg/mL and 107 µM

C[C@@H]1CC[C@H]2[C@@H](C)C(=O)O[C@@H]3O[C@@]4(C)CC[C@@H]1[C@]32OO4 [ARTEMISININ]
IC50 [1]: 0.045 µg/mL and 159 nM | inhibition [2]: inactive

CC(C)[C@@H](C(=O)N1CCOCC1)N1C(=O)c2ccccc2C1=O
IC50 [1]: 65 µg/mL and 206 µM

O=C([C@H](Cc1ccccc1)N1C(=O)c2ccccc2C1=O)N1CCC(Cc2ccccc2)CC1
IC50 [1]: 5.5 µg/mL and 12.2 µM | IC50 [3]: 5 µM | IC50 [4]: 3.8 µM | Activity [5]: Active | Activity [6]: Active | inhibition [7]: Dose-dependent effect | IC50 [8]: 13.3 µM | Activity [9]: Active | Activity [10]: Active | Activity [11]: Non-toxic

O=C([C@H](Cc1ccccc1)N1C(=O)c2ccccc2C1=O)N1CCOCC1
IC50 [1]: 18 µg/mL and 49.4 µM | inhibition [12]: Active | inhibition [13]: Active | inhibition [14]: Active

CC(C)C[C@@H](C(=O)N1CCCCC1)N1C(=O)c2ccccc2C1=O
IC50 [1]: 71.5 µg/mL and 218 µM

CC(C)[C@@H](C(=O)N1CCC(Cc2ccccc2)CC1)N1C(=O)c2ccccc2C1=O
IC50 [1]: 19.5 µg/mL and 48.2 µM

CC(C)C[C@@H](C(=O)N1CCN(C(=O)[C@H](CC(C)C)N2C(=O)c3ccccc3C2=O)CC1)N1C(=O)c2ccccc2C1=O
IC50 [1]: 61 µg/mL and 203 µM

CC[C@H](C)[C@@H](C(=O)N1CCC(Cc2ccccc2)CC1)N1C(=O)c2ccccc2C1=O
IC50 [1]: 22.5 µg/mL and 53.8 µM

O=C([C@H](Cc1ccccc1)N1C(=O)c2ccccc2C1=O)N1CCCC1
IC50 [1]: 31.5 µg/mL and 87.6 µM | inhibition [12]: Active | inhibition [13]: Active | inhibition [14]: Active

CC[C@@H](C)[C@@H](C(=O)N1CCN(C(=O)[C@H]([C@H](C)CC)N2C(=O)c3ccccc3C2=O)CC1)N1C(=O)c2ccccc2C1=O
IC50 [1]: 3.42 µg/mL and 5.97 µM | IC50 [3]: 2 µM | IC50 [4]: 1.1 µM | Activity [15]: Active | Activity [16]: Active | inhibition [7]: Dose-dependent effect | IC50 [8]: 7.21 µM | IC50 [17]: 1.39 µM | IC50 [18]: 1.92 µM | IC50 [19]: 2.44 µM | Activity [20]: Active | Activity [21]: Active | Activity [11]: Non-toxic

CC(C)[C@@H](C(=O)N1CCN(C(=O)[C@H](C(C)C)N2C(=O)c3ccccc3C2=O)CC1)N1C(=O)c2ccccc2C1=O
IC50 [1]: 9.2 µg/mL and 16.9 µM

CC[C@@H](C)[C@@H](C(=O)N1CCCC1)N1C(=O)c2ccccc2C1=O
IC50 [1]: 46 µg/mL and 146 µM

O=C([C@H](Cc1ccccc1)N1C(=O)c2ccccc2C1=O)N1CCN(C(=O)[C@H](Cc2ccccc2)N2C(=O)c3ccccc3C2=O)CC1
IC50 [1]: 33.8 µg/mL and 52.7 µM | inhibition [12]: Active

CC(C)C[C@@H](C(=O)N1CCOCC1)N1C(=O)c2ccccc2C1=O
IC50 [1]: 46 µg/mL and 139 µM

CC(C)C[C@@H](C(=O)N1CCCC1)N1C(=O)c2ccccc2C1=O
IC50 [1]: 74.2 µg/mL and 236 µM

O=C([C@H](Cc1ccccc1)N1C(=O)c2ccccc2C1=O)N1CCCCC1
IC50 [1]: 13 µg/mL and 36 µM
